Assay results published in patent publication US20100056516A1 (priority 2006, published 2010).

Tests used:
HIV integrase = HIV integrase (Human immunodeficiency virus type 1 group M subtype B, UniProt P04585); test: integrase strand transfer assay (STA); assay type: biochemical; settings: integrase strand transfer; read-out: IC50 in the STA assay
HXB2 virus = test: microbe, parasite or virus in culture; assay type: cell-based, HIV; settings: Human immunodeficiency virus 1, HXB2, HeLaP4-2, read-out: antiviral IC50 (SCIA-B)
In short: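 Single-cycle infectivity assay in HeLa P4-2 cells measuring inhibition of acute HIV infection, using HXB2 virus.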

Row | SMILES | IC50 (HIV integrase) [µM] | IC50 (HXB2 virus) [µM]
1 | O=c1cc(NCc2cccc(F)c2)c2cccnc2n1O [Example 146, 4-[(3-fluorobenzyl)amino]-1-hydroxy-1,8-naphthyridin-2(1H-one)] | < 50 | < 100
2 | O=c1c(-c2ccccc2)c(O)c2cc(Br)cnc2n1O [Example 47, 6-Bromo-1,4-dihydroxy-3-phenyl-1,8-naphthyridin-2(1H)-one] | < 50 | < 100
3 | CCOC(=O)c1c(O)c2cc(C(=O)N3CCC(CCc4ccccc4)CC3)cnc2n(O)c1=O [Example 84, Ethyl 1,4-dihydroxy-2-oxo-6-{[4-(2-phenylethyl)piperidin-1-yl]carbonyl}-1,2-dihydro-1,8-naphthyridine-3-carboxylate] | < 50 | < 100
4 | O=c1c(-c2cccc(Br)c2)c(O)c2cccnc2n1O [Example 44, 3-(3-bromophenyl)-1,4-dihydroxy-1,8-naphthyridin-2(1H)-one] | < 50 | < 100
5 | O=c1c(-c2ccc(Cl)cc2)c(O)c2cccnc2n1O [Example 37, 3-(4-Chlorophenyl)-1,4-dihydroxy-1,8-naphthyridin-2(1H)-one] | < 50 | < 100
6 | CS(=O)(=O)Nc1cccc(-c2cnc3c(c2)c(O)cc(=O)n3O)c1 [Example 69, N-[3-(5,8-Dihydroxy-7-oxo-7,8-dihydro-1,8-naphthyridin-3-yl)phenyl]methane-sulfonamide] | < 50 | < 100
7 | CCOC(=O)c1c(O)c2cc(C(=O)N3CCC(CCCc4ccccc4)CC3)cnc2n(O)c1=O [Example 83, Ethyl 1,4-dihydroxy-2-oxo-6-{[4-(3-phenylpropyl)piperidin-1-yl]carbonyl}-1,2-dihydro-1,8-naphthyridine-3-carboxylate] | < 50 | < 100
8 | CC(=O)c1cnc2c(c1)c(O)c(-c1ccccc1)c(=O)n2O [Example 71, 6-acetyl-1,4-dihydroxy-3-phenyl-1,8-naphthyridin-2(1H)-one] | < 50 | < 100
9 | O=c1cc(-c2cncnc2)c2cccnc2n1O [Example 197, 1-hydroxy-4-pyrimidin-5-yl-1,8-naphthyridin-2(1H)-one] | < 50 | < 100
10 | O=c1c(-c2ccccc2F)c(O)c2cccnc2n1O [Example 32, 3-(2-Fluorophenyl)-1,4-dihydroxy-1,8-naphthyridin-2(1H)-one] | < 50 | < 100
11 | O=c1c(-c2ccccc2)c(O)c2cc(-c3ccccc3-n3cccn3)cnc2n1O [Example 53, 1,4-Dihydroxy-3-phenyl-6-[2-(1H-pyrazol-1-yl)phenyl]-1,8-naphthyridin-2(1H)-one] | < 50 | < 100
12 | CC(Nc1cc(=O)n(O)c2ncccc12)c1ccccc1 (centres unmarked) [Example 157, 1-hydroxy-4-[(1-phenylethyl)amino]-1,8-naphthyridin-2(1H-one)] | < 50 | < 100
13 | O=c1cc(C2=Cc3ccccc3CC2)c2cccnc2n1O [Example 246, 4-(3,4-dihydronaphthalen-2-yl)-1-hydroxy-1,8-naphthyridin-2(1H)-one] | < 50 | < 100
14 | C[C@@H](Nc1cc(=O)n(O)c2ncccc12)c1ccccc1 [Example 125, 1-hydroxy-4-{[(1R)-1-phenylethyl]amino}-1,8-naphthyridin-2(1H)-one] | < 50 | < 100
15 | O=c1cc(-c2cccc(-c3cccc(CNCc4ccccc4)c3)c2)c2cccnc2n1O [Example 205, 4-{3′-[(benzylamino)methyl]biphenyl-3-yl}-1-hydroxy-1,8-naphthyridin-2(H)-one] | < 50 | < 100
16 | CCOC(=O)c1c(O)c2cc(-c3cc(C)cc(C)c3)cnc2n(O)c1=O [Example 65, Ethyl 6-(3,5-dimethylphenyl)-1,4-dihydroxy-2-oxo-1,2-dihydro-1,8-napthyridine-3-carboxylate] | < 50 | < 100
17 | CCOC(=O)c1c(-c2cc(CCc3ccccc3F)cc(-c3ccc(CN)cc3)c2)c2cccnc2n(O)c1=O [Example 263, ethyl 4-[4′-aminomethyl-5-(2-fluorophenethyl)biphenyl-3-yl]1-hydroxy-2-oxo-1,2-dihydro-1,8-naphthyridine-3-carboxylate] | < 50 | < 100
18 | COc1ccc(NC(=O)c2c(O)c3cccnc3n(O)c2=O)cn1 [Example 14, 1,4-Dihydroxy-N-(6-methoxypyridine-3-yl)-2-oxo-1,2-dihydro-1,8-naphthyridine-3-carboxamide] | < 50 | < 100
19 | O=c1c(-c2ccccc2)c(O)c2cc(-c3cccc(-c4ccccc4)c3)cnc2n1O [Example 54, 6-Biphenyl-3-yl-1,4-dihydroxy-3-phenyl-1,8-naphthyridin-2(1H)-one] | < 50 | < 100
20 | O=c1cc(Nc2ccccc2)c2cccnc2n1O [Example 103, 4-Anilino-1-hydroxy-1,8-naphthyridin-2(1H)-one] | < 50 | < 100

Row | SMILES | IC50 (HIV integrase) [µM] | IC50 (HXB2 virus) [µM]
21 | O=c1c(-c2ccccc2)c(O)c2cc(Cc3ccccc3)cnc2n1O [Example 52, 6-Benzyl-1,4-dihydroxy-3-phenyl-1,8-naphthyridin-2(1H)-one] | < 50 | < 100
22 | O=c1cc(NC2CCN(Cc3ccccc3)CC2)c2cccnc2n1O [Example 108, 4-[(1-Benzylpiperidin-4-yl)amino]-1-hydroxy-1,8-naphthyridin-2(1H)-one] | < 50 | < 100
23 | CS(=O)(=O)c1cccc(-c2cc(=O)n(O)c3ncccc23)c1 [Example 199, 1-hydroxy-4-[3-(methylsulfonyl)phenyl]-1,8-naphthyridin-2(1H)-one] | < 50 | < 100
24 | CCOC(=O)c1c(O)c2cc(-c3ccccc3OC)cnc2n(O)c1=O [Example 61, Ethyl 1,4-dihydroxy-6-(2-methoxyphenyl)-2-oxo-1,2-dihydro-1,8-naphthyridine-3-carboxylate] | < 50 | < 100
25 | O=c1cc(-c2cccc(O)c2)c2cccnc2n1O [Example 237, 1-hydroxy-4-(3-hydroxyphenyl)-1,8-naphthyridin-2(1H)-one] | < 50 | < 100
26 | CCOC(=O)c1c(Nc2ccccc2)c2cccnc2n(O)c1=O [Example 127, Ethyl 4-anilino-1-hydroxy-2-oxo-1,2-dihydro-1,8-naphthyridine-3-carboxylate] | < 50 | < 100
27 | O=c1cc(-c2cnc3[nH]ccc3c2)c2cccnc2n1O [Example 245, 1-hydroxy-4-(1H-pyrrolo[2,3-b]pyridin-5-yl)-1,8-naphthyridin-2(1H)-one bistrifluoroacetate] | < 50 | < 100
28 | O=c1cc(-c2ccc3cc[nH]c3c2)c2cccnc2n1O [Example 186, 1-hydroxy-4-(1H-indol-6-yl)-1,8-naphthyridin-2(1H)-one] | < 50 | < 100
29 | O=c1cc(N2CCC[C@@H]2CF)c2cccnc2n1O [Example 117, 4-[(2R)-2-(fluoromethyl)pyrrolidin-1-yl]-1-hydroxy-1,8-naphthyridin-2(1H)-one] | < 50 | < 100
30 | COc1cccc(NC(=O)c2c(O)c3cccnc3n(O)c2=O)c1 [Example 12, 1,4-Dihydroxy-N-(3-methoxyphenyl)-2-oxo-1,2-dihydro-1,8-naphthyridine-3-carboxamide] | < 50 | < 100
31 | CN(C(=O)c1c(O)c2cccnc2n(O)c1=O)C1CCN(C(=O)OC(C)(C)C)C1 (centres unmarked) [Example 10, tert-Butyl 3-[[(1,4-dihydroxy-2-oxo-1,2-dihydro-1,8-naphthyridin-3-yl)carbonyl](methyl)amino]pyrrolidine-1-carboxylate] | < 50 | < 100
32 | O=c1cc(O)c2cccnc2n1O [Example 2, 1,4-Dihydroxy-1,8-naphthyridin-2(1B)-one] | < 50 | < 100
33 | CC(Br)Cc1cnc2c(c1)c(O)c(-c1ccccc1)c(=O)n2O (centres unmarked) [Example 74, 6-(2-Bromopropyl)-1,4-dihydroxy-3-phenyl-1,8-naphthyridin-2(1H)-one] | < 50 | < 100
34 | CCOC(=O)c1c(O)c2cc(-c3cccc(-c4ccccc4)c3)cnc2n(O)c1=O [Example 64, Ethyl 6-biphenyl-3-yl-1,4-dihydroxy-2-oxo-1,2-dihydro-1,8-naphthyridine-3-carboxylate] | < 50 | < 100
35 | CC(c1ccc(-c2cccc(-c3cc(=O)n(O)c4ncccc34)c2)cc1)N1CCOCC1 (centres unmarked) [Example 178, 1-hydroxy-4-[4′-(1-morpholin-4-ylethyl)biphenyl-3-yl]-1,8-naphthyridin-2(1H)-one] | < 50 | < 100
36 | O=c1c(Cc2ccccc2)c(O)c2cc(-c3ccccc3)cnc2n1O [Example 67, 3-Benzyl-1,4-dihydroxy-6-phenyl-1,8-naphthyridin-2(1H)-one] | < 50 | < 100
37 | N#Cc1ccc2c(c1)CN(c1cc(=O)n(O)c3ncccc13)CC2 [Example 120, 2-(1-hydroxy-2-oxo-1,2-dihydro-1,8-naphthyridin-4-yl)-1,2,3,4-tetrahydroisoquinoline-7-carbonitrile] | < 50 | < 100
38 | O=C(c1c(O)c2cccnc2n(O)c1=O)N1CCCCC1 [Example 8, 1,4-Dihydroxy-3-(piperidin-1-ylcarbonyl)-1,8-naphthyridin-2(1H)-one] | < 50 | < 100
39 | CC(c1ccccc1)N1CCN(Cc2cccc(-c3cc(=O)n(O)c4ncccc34)c2)CC1 (centres unmarked) [Example 210, 1-hydroxy-4-(3-{[4-(1-phenylethyl)-1-piperazinyl]methyl}phenyl)-1,8-naphthyridin-2(1H-one)] | < 50 | < 100
40 | CCOC(=O)c1c(O)c2cc(C(=O)NCc3ccccc3OC)cnc2n(O)c1=O [Example 79, Ethyl 1,4-dihydroxy-6-{[2-methoxybenzyl)amino] carbonyl}-2-oxo-1,2-dihydro-1,8-naphthyridine-3-carboxylate] | < 50 | < 100
